# Legend:
# [1] = tested on: MDR-Acinetobacter baumannii; test: Antibiotic resistance profile of strain; type: cell-based; settings: strain 5542
# [2] = tested on: Pseudomonas aeruginosa; test: Antibiotic resistance profile of strains; type: cell-based
# [3] = tested on: Pseudomonas aeruginosa PAO1; test: Coadministration with antibiotics, development of resistance (MIC over days); type: cell-based
# From the text: MIC values were categorized in three groups according to the Clinical and Laboratory Standards Institute: susceptible, intermediate susceptible and resistant.
# [4] = tested on: lipopolysaccharides of P. aeruginosa, strain PA10; test: Analytical ultracentrifuge sedimentation velocity analysis of interaction with LPS; type: binding, Pseudomonas aeruginosa; settings: 135 μM P[5]a and 35 μM LPS, UV absorbance at 305 nm
# Procedure: A clear initial peak of unbound P[5]a can be observer at low molecular weight (2260 Da), followed by a long and polydisperse collection of peaks, ranging from low molecular weight (S), to very high molecular weight (60.000 kDa) See Example 2.
# The interaction of P[5]a with lipopolysaccharides of P. aeruginosa, strain PA10 was measured using AUC.
# Analytical ultracentrifugation (AUC) is based on sedimentation of colloidal particles in a centrifugal field. During centrifugation particles move toward the bot-tom of the measuring cell. This movement leads to redistribution of particles along the measuring cell, which in turn can be expressed as a change in concentration along the measuring cell. The absorbance detector was used to follow the changes caused by centrifugation (absorbance is proportional to concentration). In simple words, in AUC the inventors measure how concentration changes during centrifugation, so they collect concentration profiles. Interaction between particles can be measured as a result of changes in the sedimentation profiles. […]
# The spectra of both P[5]a and LPS from P. aeruginosa were first analysed separately (see FIGS. 11a and b). […] Because only the sedimentation of P[5]a was detected at 305 nm, the inventors were certain that any changes observed in the sedimentation profile, come from interactions between P[5]a and other particles. […]
# [5] = Lung neutrophil infiltration and inflammation score after i.v. or i.n. administration; type: in vivo; settings: BALB/c mice, different dosages, 24 hours
# From the text: Two different administration methods were use, intravenously (i.v.) or intranasally (i.n.). Pathological changes were graded according to severity (P=Present; 1=Minimal; 2=Mild; 3=Moderate).
# [6] = tested on: MDR resistant clinical isolates; test: Coadministration with antibiotics in MDR resistant clinical isolates; type: cell-based; settings: Amikacin, Cefepime, Ceftazidime and Meropenem
molecule,measurement,setting,value
NCC[C@H](O)C(=O)N[C@@H]1C[C@H](N)[C@@H](O[C@H]2O[C@H](CN)[C@@H](O)[C@H](O)[C@H]2O)[C@H](O)[C@H]1O[C@H]1O[C@H](CO)[C@@H](O)[C@H](N)[C@H]1O [Amikacin],Antibiotic resistance (category),[1],"Resistant to Amikacin, Amoxicillin-clavulanate, Ampicillin,"
same,Antibiotic resistance (category),[2]; strain 2798 (ATCC 2798),Susceptible
same,Antibiotic resistance (value),[2]; strain 5539,"Susceptible to Amikacin 8 ug, intermediate to Cefepime 8 ug,"
same,Antibiotic resistance (value),"[2]; strain 5542, MDR","MDR Intermediate susceptible to amikacin 16 ug, resistant to"
same,Antibiotic resistance (value),"[2]; strain 5550, MDR",MDR Intermediate susceptible to amikacin 32 ug
same,Antibiotic resistance (value),"[2]; strain 5834, MDR","MDR Intermediate susceptible to amikacin 16 ug, resistant to"
CC1(C)S[C@@H]2[C@H](NC(=O)[C@H](N)c3ccccc3)C(=O)N2[C@H]1C(=O)O [Ampicillin],Antibiotic resistance (category),[1],"Resistant to Amikacin, Amoxicillin-clavulanate, Ampicillin,"
CC[C@H]1OC(=O)[C@H](C)[C@@H](O[C@H]2C[C@@](C)(OC)[C@@H](O)[C@H](C)O2)[C@H](C)[C@@H](O[C@@H]2O[C@H](C)C[C@H](N(C)C)[C@H]2O)[C@](C)(O)C[C@@H](C)CN(C)[C@H](C)[C@@H](O)[C@]1(C)O [Azithromycin],Antibiotic resistance (category),[1],"Resistant to Amikacin, Amoxicillin-clavulanate, Ampicillin,"
C[C@H]1[C@H](NC(=O)/C(=N\OC(C)(C)C(=O)O)c2csc(N)n2)C(=O)N1S(=O)(=O)O [Aztreonam],Antibiotic resistance (category),[2]; strain 2798 (ATCC 2798),Intermediate susceptible
CC1=C(C(=O)O)N2C(=O)[C@@H](NC(=O)[C@H](N)c3ccccc3)[C@H]2SC1 [Cefalexin],Antibiotic resistance (category),[1],"Resistant to Amikacin, Amoxicillin-clavulanate, Ampicillin,"
CO/N=C(\C(=O)N[C@@H]1C(=O)N2C(C(=O)[O-])=C(C[N+]3(C)CCCC3)CS[C@H]12)c1csc(N)n1 [Cefepime],MIC,"[3]; Pseudomonas aeruginosa, 96 h, PAO1, after four days, highest concentration of antibiotic included",128 µg/mL
CC(C)(O/N=C(\C(=O)N[C@@H]1C(=O)N2C(C(=O)[O-])=C(C[n+]3ccccc3)CS[C@H]12)c1csc(N)n1)C(=O)O [Ceftazidime],Antibiotic resistance (value),[2]; strain 5539,8 µg
same,Antibiotic resistance (value),"[2]; strain 5542, MDR",32 µg
same,Antibiotic resistance (value),"[2]; strain 5827, MDR",64 µg
same,Antibiotic resistance (value),"[2]; strain 5832, MDR",16 µg
same,Antibiotic resistance (value),"[2]; strain 5834, MDR","cefepime 64 ug, ceftazidime 64 ug and meropenem 64 ug"
C[C@@H](O)[C@H]1C(=O)N2C(C(=O)O)=C(S[C@@H]3CN[C@H](C(=O)Nc4cccc(C(=O)O)c4)C3)[C@H](C)[C@H]12 [Ertapenem],Antibiotic resistance (category),[1],"Resistant to Amikacin, Amoxicillin-clavulanate, Ampicillin,"
C[C@@H](O)[C@H]1C(=O)N2C(C(=O)O)=C(S[C@@H]3CN[C@H](C(=O)N(C)C)C3)[C@H](C)[C@H]12 [Meropenem],Antibiotic resistance (category),[1],"Resistant to Amikacin, Amoxicillin-clavulanate, Ampicillin,"
same,Antibiotic resistance (value),[2]; strain 5539,8 µg
same,Antibiotic resistance (value),"[2]; strain 5542, MDR",8 µg
same,Antibiotic resistance (value),"[2]; strain 5827, MDR",16 µg
same,Antibiotic resistance (value),"[2]; strain 5832, MDR",8 µg
same,Antibiotic resistance (value),"[2]; strain 5834, MDR","cefepime 64 ug, ceftazidime 64 ug and meropenem 64 ug"
"C[N+](C)(C)CCOc1cc2c(OCC[N+](C)(C)C)cc1Cc1cc(OCC[N+](C)(C)C)c(cc1OCC[N+](C)(C)C)Cc1cc(OCC[N+](C)(C)C)c(cc1OCC[N+](C)(C)C)Cc1cc(OCC[N+](C)(C)C)c(cc1OCC[N+](C)(C)C)Cc1cc(OCC[N+](C)(C)C)c(cc1OCC[N+](C)(C)C)C2.[Br-].[Br-].[Br-].[Br-].[Br-].[Br-].[Br-].[Br-].[Br-].[Br-] [P[5]a, 4,9,14,19,24,26,28,30,32,34-Deca[2-(trimethylaminio)ethoxy]hexacyclo[21.2.2.2^3,6.2^8,11.2^13,16.2^18,21]pentatriaconta1(25),3,5,8,10, 13,15,18,20,23,26,28,30,32,34-pentadecaene 10bromide]",interaction with LPS,[4],strong interaction
same,penetration of coadministered antibiotics,[3]; PAO1,enhances the penetration
same,development of resistance by the pathogen to the coadministered antibiotic,"[3]; coadministration with Aztreonam, Cefepime, Meropenem and Tobramycin, PAO1",greatly slowed
same,tolerability (lung neutrophil infiltration and inflammation score),[5],good tolerability
same,penetration and efficacy of coadministered antibiotics,[6],enhances the penetration and efficacy
Cc1cc(NS(=O)(=O)c2ccc(N)cc2)no1 [Sulfamethoxazole],Antibiotic resistance (category),[1],"Resistant to Amikacin, Amoxicillin-clavulanate, Ampicillin,"
CN(C)c1cc(NC(=O)CNC(C)(C)C)c(O)c2c1C[C@H]1C[C@H]3[C@H](N(C)C)C(O)=C(C(N)=O)C(=O)[C@@]3(O)C(O)=C1C2=O [Tigecycline],Antibiotic resistance (category),[1],"Resistant to Amikacin, Amoxicillin-clavulanate, Ampicillin,"
NC[C@H]1O[C@H](O[C@H]2[C@H](O)[C@@H](O[C@H]3O[C@H](CO)[C@@H](O)[C@H](N)[C@H]3O)[C@H](N)C[C@@H]2N)[C@H](N)C[C@@H]1O [Tobramycin],Antibiotic resistance (category),[1],"Resistant to Amikacin, Amoxicillin-clavulanate, Ampicillin,"
same,Antibiotic resistance (category),[2]; strain 5539,resistant
CO/N=C(\C(=O)N[C@@H]1C(=O)N2C(C(=O)O)=C(COC(N)=O)CS[C@H]12)c1ccco1 [cefurixome],Antibiotic resistance (category),[2]; strain 5539,resistant
O=C(O)c1cn(C2CC2)c2cc(N3CCNCC3)c(F)cc2c1=O [ciprofloxacin],Antibiotic resistance (category),[2]; strain 5539,resistant
same,Antibiotic resistance (category),"[2]; strain 5832, MDR",resistant
Amoxicillin-clavulanate,Antibiotic resistance (category),[1],"Resistant to Amikacin, Amoxicillin-clavulanate, Ampicillin,"
Colistin,Antibiotic resistance (category),[2]; strain 2798 (ATCC 2798),Susceptible
Piperacillin-tazobactam,Antibiotic resistance (category),[1],"Resistant to Amikacin, Amoxicillin-clavulanate, Ampicillin,"
same,Antibiotic resistance (category),[2]; strain 5539,resistant

# Source: US20230226099A1, “INHALABLE FORMULATION” (AALTO UNIVERSITY FOUNDATION SR, priority 2020, published 2023)
